pIC50: −log10 of the molar value.
Each molecule was assayed against human NaV subtype, like NaV 1.7 (Homo sapiens, UniProt Q15858) (assay: E-VIPR optical membrane potential assay with electrical stimulation). Conditions: active against one or more sodium channels; Table 3 does not name the assay or NaV subtype; read-out: Binned Activity Data (IC50).
human NaV subtype, like NaV 1.7, sequence (Q15858 whole entry): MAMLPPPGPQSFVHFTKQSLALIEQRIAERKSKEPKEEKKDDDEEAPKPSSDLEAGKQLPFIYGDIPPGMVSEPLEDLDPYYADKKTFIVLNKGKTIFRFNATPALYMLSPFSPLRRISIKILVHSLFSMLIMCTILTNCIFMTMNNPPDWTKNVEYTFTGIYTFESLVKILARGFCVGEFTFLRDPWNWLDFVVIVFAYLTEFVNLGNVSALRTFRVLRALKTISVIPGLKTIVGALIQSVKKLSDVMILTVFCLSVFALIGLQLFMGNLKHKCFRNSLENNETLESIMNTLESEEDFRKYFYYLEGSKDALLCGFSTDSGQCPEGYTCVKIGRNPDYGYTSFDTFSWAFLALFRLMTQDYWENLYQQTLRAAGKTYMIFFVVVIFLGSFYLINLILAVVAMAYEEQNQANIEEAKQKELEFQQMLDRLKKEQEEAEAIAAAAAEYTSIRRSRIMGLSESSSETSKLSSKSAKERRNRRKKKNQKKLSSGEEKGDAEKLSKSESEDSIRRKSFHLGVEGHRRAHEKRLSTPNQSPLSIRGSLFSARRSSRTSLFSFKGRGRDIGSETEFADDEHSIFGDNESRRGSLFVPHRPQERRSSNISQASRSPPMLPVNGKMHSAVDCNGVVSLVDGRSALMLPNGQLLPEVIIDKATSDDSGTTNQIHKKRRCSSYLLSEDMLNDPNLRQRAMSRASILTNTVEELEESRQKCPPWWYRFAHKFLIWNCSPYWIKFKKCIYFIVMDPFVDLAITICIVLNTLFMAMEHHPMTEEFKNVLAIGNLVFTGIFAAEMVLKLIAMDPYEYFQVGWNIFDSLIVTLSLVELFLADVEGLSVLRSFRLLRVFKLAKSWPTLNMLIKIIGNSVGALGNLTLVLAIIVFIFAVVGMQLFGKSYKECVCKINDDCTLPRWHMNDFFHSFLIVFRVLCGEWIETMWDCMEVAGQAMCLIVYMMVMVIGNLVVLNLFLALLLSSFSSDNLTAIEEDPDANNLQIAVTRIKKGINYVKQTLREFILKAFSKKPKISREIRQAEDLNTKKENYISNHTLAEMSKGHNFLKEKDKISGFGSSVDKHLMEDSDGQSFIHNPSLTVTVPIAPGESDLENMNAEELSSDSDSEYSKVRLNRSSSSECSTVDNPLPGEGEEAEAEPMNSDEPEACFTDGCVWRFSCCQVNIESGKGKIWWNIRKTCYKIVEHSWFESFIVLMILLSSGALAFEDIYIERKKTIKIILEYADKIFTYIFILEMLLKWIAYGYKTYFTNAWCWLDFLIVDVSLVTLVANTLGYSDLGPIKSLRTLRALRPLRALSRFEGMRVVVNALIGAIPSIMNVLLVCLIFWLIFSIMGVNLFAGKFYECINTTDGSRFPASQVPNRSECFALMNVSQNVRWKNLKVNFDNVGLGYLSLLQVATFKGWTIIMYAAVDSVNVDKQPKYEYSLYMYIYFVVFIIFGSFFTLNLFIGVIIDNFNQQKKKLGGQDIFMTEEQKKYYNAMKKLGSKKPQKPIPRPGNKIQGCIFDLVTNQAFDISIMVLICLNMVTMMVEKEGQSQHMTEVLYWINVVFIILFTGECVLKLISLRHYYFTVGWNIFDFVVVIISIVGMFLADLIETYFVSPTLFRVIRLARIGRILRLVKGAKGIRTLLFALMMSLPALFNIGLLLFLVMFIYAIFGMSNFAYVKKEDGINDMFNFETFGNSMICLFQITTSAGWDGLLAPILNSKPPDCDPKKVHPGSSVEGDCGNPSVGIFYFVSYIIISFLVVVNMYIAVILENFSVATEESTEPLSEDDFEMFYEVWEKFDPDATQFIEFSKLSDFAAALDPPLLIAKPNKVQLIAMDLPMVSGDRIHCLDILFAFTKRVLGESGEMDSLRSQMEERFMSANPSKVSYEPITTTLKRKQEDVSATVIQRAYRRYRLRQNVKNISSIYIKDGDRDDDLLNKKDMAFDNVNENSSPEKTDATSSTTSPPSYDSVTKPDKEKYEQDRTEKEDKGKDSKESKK
Format: cell-based
In the case of `Cc1nc(C(=O)N2CCC3(CC2)c2c(F)cc(C(F)(F)F)n2CCN3C)ccc1OC(C)C` [Compound 206], the pIC50 was no less than 5.70.
`CN1CCn2c(Cl)ccc2C12CCN(C(=O)c1ccc(COc3ccccc3)cc1)CC2` [Compound 414] showed a pIC50 of 5.30 to 5.70.
`COc1cc(C(=O)N2CCC3(CC2)c2ccc(C(=O)C(F)(F)F)n2CCN3C)ccc1OCC(C)C` [Compound 516] showed a pIC50 of no less than 5.70.
`CCC(=O)c1ccc2n1CCN(C)C21CCN(C(=O)c2ccc(OC(C)C)c(OC)c2)CC1` [Compound 607] gave a pIC50 of 5.30 to 5.70.
Work on `COc1ccc(C(=O)N2CCC3(CC2)NCC(C)n2c(C(=O)C(F)(F)F)ccc23)cc1C(F)(F)F` (stereo not drawn) [Compound 173] yielded a pIC50 of no less than 5.70.
For `CC(C)Oc1ccc(C(=O)N2CCC3(CC2)c2ccc(C(=O)C(F)(F)F)n2CCN3C)cc1Cl` [Compound 528], the pIC50 was no less than 5.70.
Molecule `CN1CCn2c(C(=O)C(F)(F)F)ccc2C12CCN(C(=O)c1ccc(-c3ccccc3)cn1)CC2` [Compound 453] has a pIC50 of 5.30 to 5.70.
For `Cc1cc(C(=O)N2CCC3(CC2)c2ccc(C(F)(F)F)n2CCN3C2CCC2)ccc1OC(C)C` [Compound 106], the pIC50 was no less than 5.70.
Work on `CCCCOc1ccc(C(=O)N2CCC3(CC2)c2ccc(C(F)(F)F)n2CCN3C)cc1OC` [Compound 203] yielded a pIC50 of no less than 5.70.
Molecule `CC(C)Oc1ccc(C(=O)N2CC[C@]3(c4ccc(C(F)(F)F)n4CCN3C)[C@H](F)C2)cc1CO` [Compound 202] has a pIC50 of 5.30 to 5.70.
`CC(=O)c1ccc2n1CC(C)(C)NC21CCN(C(=O)c2ccc(OC(C)C)c(Cl)c2)CC1` [Compound 277] showed a pIC50 of no less than 5.70.
`CC(C)(O)c1ccc(C(=O)N2CCC3(CC2)c2ccc(C(F)(F)F)n2CCN3C2CC2)cc1` [Compound 451] showed a pIC50 of less than 5.30.
`COc1cc(C(=O)N2CCC3(CC2)NCC(=O)n2c(C(F)(F)F)ccc23)ccc1OC(C)C` [Compound 4] gave a pIC50 of less than 5.30.
Molecule `CN1CCn2c(C(=O)C(F)(F)F)ccc2C12CCN(C(=O)c1ccc(OCc3ccccc3)cc1)CC2` [Compound 369] has a pIC50 of no less than 5.70.
With `Cc1c(O)cccc1C(=O)N1CCC2(CC1)c1ccc(C(=O)C(F)(F)F)n1CCN2C` [Compound 714] the pIC50 was less than 5.30.
Work on `CC(C)CS(=O)(=O)c1ccc(C(=O)N2CCC3(CC2)c2ccc(C(F)(F)F)n2CCN3C)cc1` [Compound 486] yielded a pIC50 of no less than 5.70.
Work on `CC(C)Oc1ccc(C(=O)N2CCC3(CC2)c2ccc(Cl)n2CCN3C)cc1Cl` [Compound 250] yielded a pIC50 of no less than 5.70.
`COc1cc(C(=O)N2CCC3(CC2)c2c(Br)cc(C(F)(F)F)n2CCN3C)ccc1OC(C)C` [Compound 348] was tested, and the pIC50 was no less than 5.70.
In the case of `CCCc1ccc(C(=O)N2CCC3(CC2)c2ccc(Cl)n2CCN3C)cc1` [Compound 224], the pIC50 was less than 5.30.
`CC(C)(O)c1ccc(C(=O)N2CCC3(CC2)c2ccc(C(F)(F)F)n2CCN3CC(F)(F)F)cc1` [Compound 366] showed a pIC50 of no less than 5.70.
In the case of `CC(=O)c1ccc2n1CCN(C)C21CCN(C(=O)c2ccc(C(C)C)cc2)CC1` [Compound 519], the pIC50 was less than 5.30.
`CC(=O)c1ccc2n1CCN(C)C21CCN(C(=O)c2ccc(C(C)(C)C)cc2)CC1` [Compound 473] gave a pIC50 of less than 5.30.
`COc1cc(C(=O)N2CCC3(CC2)NC(C)Cn2c(C(F)(F)F)ccc23)ccc1OC(C)C` (stereo not drawn) [Compound 320] showed a pIC50 of no less than 5.70.
For `CC(C)Oc1ccc(C(=O)N2CCC3(CC2)c2ccc(C(=O)C4(C)CC4)n2CCN3C)c(F)c1` [Compound 445], the pIC50 was no less than 5.70.
`CCCOc1ccc(C(=O)N2CCC3(CC2)c2c(F)cc(C(F)(F)F)n2CCN3C)cc1` [Compound 18] was tested, and the pIC50 was no less than 5.70.
Work on `CC(C)S(=O)(=O)c1ccc(C(=O)N2CCC3(CC2)c2c(F)cc(C(F)(F)F)n2CCN3C)cc1` [Compound 363] yielded a pIC50 of no less than 5.70.
`COc1ccc(C(=O)N2CCC3(CC2)NCCn2c(C(F)(F)F)ccc23)cc1` [Compound 497] showed a pIC50 of less than 5.30.
Work on `CN1CCn2c(C(=O)C(F)(F)F)ccc2C12CCN(C(=O)c1ccc(COCCC(F)(F)F)cc1)CC2` [Compound 237] yielded a pIC50 of no less than 5.70.
`CN1CCn2c(C(=O)C(F)(F)F)ccc2C12CCN(C(=O)c1ccc(OC(F)(F)F)cc1)CC2` [Compound 185] gave a pIC50 of no less than 5.70.
With `O=C(c1cccc2cccnc12)N1CCC2(CC1)NCCn1c(C(F)(F)F)ccc12` [Compound 452] the pIC50 was 5.30 to 5.70.
With `COc1ccc(C(=O)N2CCC3(CC2)c2ccc(C(=O)C(F)(F)F)n2C(C)(C)CN3C)cc1C(F)(F)F` [Compound 596] the pIC50 was less than 5.30.
`COc1cc(C(=O)N2CCC3(CC2)NCCn2c(C(F)(F)F)ccc23)ccc1C(C)(C)CO` [Compound 133] was tested, and the pIC50 was no less than 5.70.
`Cc1cc(C(=O)N2CCC3(CC2)N[C@@H](C)Cn2c(C(F)(F)F)ccc23)ccc1OC(C)C` [Compound 495] showed a pIC50 of no less than 5.70.
Molecule `Cc1cc(C(=O)N2CCC3(CC2)c2ccc(C(=O)C4CC4)n2CCN3C)ccc1OC(C)C` [Compound 70] has a pIC50 of no less than 5.70.
With `CC1CCN(S(=O)(=O)c2ccc(C(=O)N3CCC4(CC3)c3ccc(Cl)n3CCN4C)cc2)CC1` [Compound 310] the pIC50 was less than 5.30.
`Cc1cc(C(=O)N2CCC3(CC2)c2c(F)cc(C(F)(F)F)n2CCN3C)ccc1OCC(C)(C)O` [Compound 217] showed a pIC50 of no less than 5.70.
For `CNC(=O)N1CCn2c(C(F)(F)F)ccc2C12CCN(C(=O)c1ccc(OC(C)C)c(C)c1)CC2` [Compound 533], the pIC50 was no less than 5.70.
In the case of `COc1cc(C(=O)N2CCC3(CC2)c2ccc(C(=O)N4CCC(C(C)C)CC4)n2CCN3C)ccc1OC(C)C` [Compound 622], the pIC50 was 5.30 to 5.70.
In the case of `COc1ccc(C(=O)N2CCC3(CC2)NC(C)(C)Cn2c(C(=O)C(F)(F)F)ccc23)cc1Cl` [Compound 129], the pIC50 was no less than 5.70.
`CC(C)Oc1ccc(C(=O)N2CCC3(CC2)NC(C)(C)Cn2c(C(=O)C(F)(F)F)ccc23)c(F)c1` [Compound 404] was tested, and the pIC50 was no less than 5.70.
`CC(=O)c1ccc2n1CCN(C)C21CCN(C(=O)c2ccc(OCC(C)(C)C)cc2)CC1` [Compound 462] was tested, and the pIC50 was no less than 5.70.
Molecule `COc1cc(C(=O)N2CCC3(CC2)c2ccc(C(F)(F)F)n2CCN3C)ccc1OCCO` [Compound 440] has a pIC50 of less than 5.30.
`Cc1cc(C(=O)N2CCC3(CC2)c2ccc(Cl)n2CCN3C)ccc1C(C)(C)O` [Compound 10] showed a pIC50 of no less than 5.70.
In the case of `CCCN(CCC)S(=O)(=O)c1ccc(C(=O)N2CCC3(CC2)c2ccc(C(C)=O)n2CCN3C)cc1` [Compound 94], the pIC50 was 5.30 to 5.70.
Work on `Cc1cc(C(=O)N2CCC3(CC2)c2c(F)cc(C(F)(F)F)n2CCN3C)ccc1C1(O)CCC1` [Compound 384] yielded a pIC50 of no less than 5.70.
In the case of `CN1CCn2c(C(O)C(F)(F)F)ccc2C12CCN(C(=O)c1ccc(C3CCCCC3)cc1)CC2` (stereo not drawn) [Compound 631], the pIC50 was less than 5.30.
`CC(C)Oc1ccc(C(=O)N2CCC3(CC2)c2c(F)cc(C(F)(F)F)n2CCN3C)cc1CO` [Compound 390] gave a pIC50 of no less than 5.70.
In the case of `CC(C)Oc1ccc(C(=O)N2CCC3(CC2)c2ccc(S(C)(=O)=O)n2CCN3C)cc1Cl` [Compound 111], the pIC50 was less than 5.30.
`CCCOc1cc(C(=O)N2CCC3(CC2)c2ccc(Cl)n2CCN3C)ccc1OC` [Compound 229] gave a pIC50 of 5.30 to 5.70.
With `CC(=O)c1ccc2n1CCN(C)C21CCN(C(=O)c2ccc(OC(C)C)c(Cl)c2)CC1` [Compound 398] the pIC50 was no less than 5.70.
`CN1CCn2c(Cl)ccc2C12CCN(C(=O)c1ccc(S(=O)(=O)C(F)F)cc1)CC2` [Compound 670] was tested, and the pIC50 was less than 5.30.
For `CC1(C)Cn2c(C(=O)C(F)(F)F)ccc2C2(CCN(C(=O)c3ccc(-c4ccccc4)cn3)CC2)N1` [Compound 707], the pIC50 was no less than 5.70.
Molecule `CCC(=O)c1ccc2n1CCN(C)C21CCN(C(=O)c2ccc(OC(C)C)c(C)c2)CC1` [Compound 704] has a pIC50 of no less than 5.70.
With `Cc1cc(C(=O)N2CCC3(CC2)c2cc(C(=O)C(F)(F)F)cn2C(C)(C)CN3C)ccc1C(C)(C)O` [Compound 421] the pIC50 was less than 5.30.
In the case of `CCc1ccc(C(=O)N2CCC3(CC2)c2ccc(C(C)=O)n2CCN3C)cc1OC` [Compound 382], the pIC50 was 5.30 to 5.70.
With `CCCCCc1ccc(C(=O)N2CCC3(CC2)c2ccc(C(=O)C(F)(F)F)n2CCN3C)cc1` [Compound 62] the pIC50 was no less than 5.70.
`COc1ccc(C(=O)N2CCC3(CC2)c2ccc(C(=O)C(C)(C)C)n2CCN3C)cc1Cl` [Compound 58] showed a pIC50 of no less than 5.70.
For `CCCCOc1cc(C(=O)N2CCC3(CC2)NCCn2c(C(F)(F)F)ccc23)ccc1OC` [Compound 241], the pIC50 was less than 5.30.
Molecule `Cc1cc(C(=O)N2CCC3(CC2)c2c(C#N)cc(C(F)(F)F)n2CCN3C)ccc1C(C)(C)O` [Compound 120] has a pIC50 of 5.30 to 5.70.
With `C[C@H]1Cn2c(C(=O)C(F)(F)F)ccc2C2(CCN(C(=O)c3ccc(C(C)(C)O)cc3)CC2)N1C` [Compound 349] the pIC50 was no less than 5.70.
Molecule `O=C(c1ccc(S(=O)(=O)NC2CC2)cc1)N1CCC2(CC1)c1ccc(C(F)(F)F)n1CCN2C1CC1` [Compound 708] has a pIC50 of no less than 5.70.
`CNC(=O)N1CCn2c(C(F)(F)F)ccc2C12CCN(C(=O)c1ccc(OC(C)C)c(Cl)c1)CC2` [Compound 419] gave a pIC50 of no less than 5.70.
Work on `CC(C)Oc1ccc(C(=O)N2CCC3(CC2)c2ccc(C(=O)C4CC4)n2CCN3C)cc1C(F)(F)F` [Compound 69] yielded a pIC50 of no less than 5.70.
In the case of `CC1Cn2c(C(F)(F)F)ccc2C2(CCN(C(=O)c3ccc(OC(C)C)c(F)c3)CC2)N1` (stereo not drawn) [Compound 692], the pIC50 was no less than 5.70.
In the case of `O=C(c1ccccc1-c1ccccc1)N1CCC2(CC1)NCCn1c(C(F)(F)F)ccc12` [Compound 603], the pIC50 was less than 5.30.
`COc1cc(C(=O)N2CCC3(c4ccc(C(F)(F)F)n4CCN3C)C(C)C2)ccc1OC(C)C` (stereo not drawn) [Compound 545] showed a pIC50 of 5.30 to 5.70.
`Cc1cc(C(=O)N2CCC3(CC2)c2ccc(C(=O)C(C)C)n2CCN3C)ccc1OC(C)C` [Compound 182] showed a pIC50 of no less than 5.70.
With `CC(C)CCOc1ccc(C(=O)N2CCC3(CC2)c2ccc(Cl)n2CCN3C)cc1` [Compound 530] the pIC50 was no less than 5.70.
`Cc1cc(C(=O)N2CCC3(CC2)NCCn2c(C(F)(F)F)ccc23)ccc1OC(C)C` [Compound 356] showed a pIC50 of no less than 5.70.
`COCC#Cc1ccc(C(=O)N2CCC3(CC2)c2ccc(Cl)n2CCN3C)cc1F` [Compound 36] gave a pIC50 of less than 5.30.
With `COc1ccc(C(=O)N2CCC3(CC2)c2ccc(C(=O)C4(C)CC4)n2CCN3C)cc1C(F)(F)F` [Compound 282] the pIC50 was no less than 5.70.
For `COc1cc(C(=O)N2CCC3(CC2)N[C@@H](C)Cn2c(C(F)(F)F)ccc23)ccc1OC(C)C` [Compound 306], the pIC50 was 5.30 to 5.70.
With `CC(C)Oc1ccc(C(=O)N2CCC3(CC2)c2ccc(Cl)n2CCN3C)cc1C#N` [Compound 220] the pIC50 was 5.30 to 5.70.
Work on `CN1CCn2c(C(=O)C(F)(F)F)ccc2C12CCN(C(=O)c1ccc(-c3ccccc3)c(F)c1)CC2` [Compound 717] yielded a pIC50 of no less than 5.70.
`Cc1cc(-c2ccc(C(=O)N3CCC4(CC3)c3ccc(C(=O)C(F)(F)F)n3CCN4C)cc2C)ccn1` [Compound 169] showed a pIC50 of no less than 5.70.
